According to patent US20090054376A1, “BENZOFURAN DERIVATIVES WITH THERAPEUTIC ACTIVITIES” (Pharmos Corporation, priority 2005, published 2009):
Like-named read-outs stand apart in the source and are kept apart here.

Key:
[1] = test system: TNBS induced inflammatory bowel disease; test: TNBS induced inflammatory bowel disease; assay type: in vivo, Female Balb/C mice; settings: for transient loss in body weight: one day after TNBS instillation; for mortality: untreated 60%
Description: Female Balb/C mice (average body weight 20 g, Harlan, Israel) were lightly sedated and challenged rectally, by instillation with 70 μl of 2.5% TNBS (Sigma) dissolved in 50% ethanol, to induce intestinal inflammation and colitis. Animals were weighted before the beginning of the study and treatment was administered i.p. on a daily basis for six days at 20 mg/kg and volume dosage of 5 ml/kg. During the study period of up to 7 days, the following parameters were daily monitored and recorded: body weight, presence of blood in the stool and stool consistency. These findings are scored according to Table 6 [Murthy S.N. et al., Dig. Dis. Sci. 38:1722-34, 1993].
On the last day of the study, animals were euthanized. Abdomen was open and the colon was sectioned at the level of the caecum and the rectum. The colon was weighted and its length was measured. The whole column was excised, slited longitudinally, and examined under a magnifying lens. Any visible damage was recorded and scored for gross pathology according to Wong [Wong et al., J. Pharm. Exp. Ther. 274: 475-80, 1995]. Namely, a score of 0 indicates no damage, 1 indicates localized hyperemia and/or edema, 2 indicates at least two sites of hyperemia and/or edema, 3 indicates localized erosion, 4 indicates localized ulcer and 5 indicates either an erosion site or ulcer extending for more than 2 cm along the colon or at least two sites of erosion or ulcer. Finally, the entire colon was fixed in 4% formaldehyde for histopathological evaluation.
Each treatment group comprised at least seven animals. The following groups served as negative controls: naïve animals, sham animals that received 70 μl of 50% ethanol without TNBS, and TNBS challenged untreated and vehicle treated animals. A group of animals receiving 10 mg/kg sulfasalazine served as positive controls. Sulfasalazine is a standard anti-inflammatory drug used for the treatment of mild to moderate ulcerative colitis and Crohn's disease, and as adjunctive therapy in the treatment of severe ulcerative colitis. This drug is also used for the treatment of non-IBD related disorders, such as rheumatoid arthritis and ankylosing spondylitis. The recognized side effect of this medicament is its hepatotoxicity upon chronic treatment.

[2] = test system: IL-1β; test: Gene expression in LPS activated RAW 264.7 macrophages, IL-1β; assay type: cell-based, mouse; settings: RAW 264.7, 10 μM, LPS 1 μg/ml, RNA 3 hrs after activation, vs vehicle treated activated cells
Description: (§1) RAW 264.7 macrophages, a mouse cell line (ATCC # TIB 71), were grown in Dulbecco's modified Eagle's medium (DMEM) with 4 mM L-glutamine adjusted to contain 1.5 g/L sodium bicarbonate, 4.5 g/L glucose, and 10% heat inactivated fetal bovine serum. Cells were grown in tissue culture flasks and seeded at appropriate density into 6 wells tissue culture plates. Four million Raw cells in half a milliliter were stimulated with 1 μg/ml LPS E. coli 055:B5 (DIFCO Laboratories). The mouse macrophages were pre-treated for one hour with controls or 10 μM of test compounds, and later on activated with LPS. RNA samples were extracted from the cells 3 hrs after activation and gene expression levels were analyzed by real-time RT-PCR. In parallel, supernatants were collected and secretion of inflammatory mediators was analyzed using ELISA techniques according to the instructions of the kit manufacturer.
(§2) Total RNA is prepared using SV total RNA isolation system (Promega). The cells were homogenized in lysis buffer. The lysates were transferred to an RNA isolation column, treated with DNAse, washed and eluted according to kit instructions. RNA concentrations were determined using GeneQuant II (Pharmacia-Amersham). Complementary DNA (cDNA) was synthesized from total RNA using […] II reverse transcriptase (Life Technologies). 2 μg of total RNA were combined with an oligo (dT)15 primer, 0.5 mM dNTP mix, 8 units of reverse transcriptase and other reaction components up to a final volume of 20 μl, according to the kit instructions. The reaction mixture was incubated at 42° C. for 45 min and inactivated at 70° C. for 15 minutes. Quantitative real-time RT-PCR included 1 μl of the cDNA, 300 nM of the appropriate forward and reverse primers (according to the gene monitored) and 7.5 μl of the reaction mix containing buffer, nucleotides, Taq polymerase and SYBER green (SYBER Green master mix, Applied Biosystems), in a total reaction volume of 15 μl. Gene amplification was obtained using the GeneAmp 5700 sequence detection system (Applied Biosystems). Amplification included one stage of 10 minutes at 95° C. followed by 40 cycles of a 2-steps loop: 20 seconds at 95° C., and 1 minute at 60° C. During each annealing step, the amount of the amplified product was measured by the fluorescence of the double strand DNA binding dye, SYBER Green. The cycle of threshold (CT), representing the PCR cycle at which an increase in fluorescence above a baseline signal can be first detected, was determined for each product. A delay of one PCR cycle in the CT is translated into a two-fold decrease in starting template molecules and vice versa. The changes in the CT of the specific gene product were normalized to the changes in the CT of housekeeping cyclophilin or GAPDH as reference genes. Results were expressed as fold increase of gene expression in treated or untreated activated cells above the resting cells, after normalization to cyclophilin or GAPDH. Cells were also tested for viability to confirm that any effect on gene expression was indeed due to modulation of transcription of a specific target and not to cytoxicity.
(§3) Results were further expressed as percent inhibition of gene expression in compound treated activated cells over vehicle “treated” activated cells. Since the modulation of IL-10 and TNF-α gene expression by the compounds of the invention is relatively minor, it is not reported. […] Inhibition above 50% was considered significant.

[3] = target: T1, Human CB2 Receptor (Homo sapiens, UniProt P34972); test: [35S]GTPγS-binding assay, hCB2; assay type: biochemical; settings: GTPγS, Human CB2 Receptor; NB = no binding
T1 construct: host or cells: Sf9 or HEK-293 cells (membranes)
T1 sequence (P34972 whole entry): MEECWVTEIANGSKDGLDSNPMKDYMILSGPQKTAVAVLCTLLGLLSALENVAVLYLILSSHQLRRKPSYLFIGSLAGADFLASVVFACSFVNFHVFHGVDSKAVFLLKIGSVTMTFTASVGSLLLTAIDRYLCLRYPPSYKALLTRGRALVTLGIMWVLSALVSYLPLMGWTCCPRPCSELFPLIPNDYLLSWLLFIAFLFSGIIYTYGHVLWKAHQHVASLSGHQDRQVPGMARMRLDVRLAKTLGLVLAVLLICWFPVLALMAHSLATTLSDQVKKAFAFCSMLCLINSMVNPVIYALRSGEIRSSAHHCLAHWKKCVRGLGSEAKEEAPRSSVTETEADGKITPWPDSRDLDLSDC
Description: (§4) Functional activity of compounds of the invention toward the cannabinoid receptors was determined by stimulation of [^35S]-GTPγS binding using membranes from HEK-293 cells expressing the hCB1 receptor and membranes expressing the hCB2 receptor derived from either Sf9 (PerkinElmer) or from HEK-293 cells. Activities were compared to that of the known cannabinoid full agonist CP55940 (Alexis). The purpose of this experiment is to determine the potency of the compounds of the invention as agonists or antagonists toward each of the receptor tested.
(§5) [^35S]-GTPγS binding reactions were performed at 30° C. in 96-well plates containing 5-10 μg membrane protein suspended in 0.1 ml binding buffer [20 mM HEPES-NaOH, pH 7.4, 5 mM MgCl2, 100 mM NaCl, 0.2% (w/v) bovine serum albumin] supplemented with 50 μM GDP and 0.06 nM-10 μM of the compound being tested. Binding was initiated by the addition of [^35S]GTPγS (0.3 nM final concentration). Incubations were performed for 90 minutes and were terminated by filtration on GF/C filter plates (PerkinEimer). Filters were washed ten times with ice-cold wash buffer (20 mM HEPES-NaOH, pH 7.4, 10 mM sodium pyrophosphate). Non-specific binding was measured in the presence of 15 μM GTPγS.
(§6) Assays were performed in duplicates. Data was analyzed by plotting on the X axis the log concentration against percent of specific [^35S]GTPγS binding out of basal [^35S]GTPγS binding on the Y axis, non-linear regression is then performed using GraphPad Prism, version 3.0 (GraphPad, San Diego, Calif.) to calculate the EC50 and Emax of the compound. The EC50 value represents the concentration at which there is 50% [^35S]GTPγS binding and the Emax value the upper plateau of the curve.

[4] = test system: MCP-1; test: Gene expression in LPS activated RAW 264.7 macrophages, MCP-1; assay type: cell-based, mouse; settings: RAW 264.7, 10 μM, LPS 1 μg/ml, RNA 3 hrs after activation, vs vehicle treated activated cells
Description: as §1, §2, §3

[5] = test system: carrageenan induced inflammatory pain and paw edema; test: Inflammatory pain and paw edema induced by carrageenan; assay type: in vivo, Male Sprague Dawley rats; settings: Rattus norvegicus, ip, 3 hours; for inhibition in vivo at 10 mg/kg: 10 mg/kg i.p.
Outline: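 Male Sprague Dawley rats (~200 g) received 0.1 ml 2% λ-carrageenan subplantar in the right paw; compounds given i.p. at 3, 10 or 20 mg/kg (some p.o.) immediately after. Thermal (Hargreaves) latency, mechanical threshold, paw thickness and volume measured at 0 and 3 h; values are inter-paw differences ([…], ΔForce), volume as % of vehicle.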

[6] = target: T2, Human CB1 Receptor (Homo sapiens, UniProt P21554); test: [35S]GTPγS-binding assay, hCB1; assay type: biochemical; settings: NB = no binding
T2 construct: expressed in transfected cells; host or cells: HEK-293 cells (membranes)
T2 sequence (P21554 whole entry): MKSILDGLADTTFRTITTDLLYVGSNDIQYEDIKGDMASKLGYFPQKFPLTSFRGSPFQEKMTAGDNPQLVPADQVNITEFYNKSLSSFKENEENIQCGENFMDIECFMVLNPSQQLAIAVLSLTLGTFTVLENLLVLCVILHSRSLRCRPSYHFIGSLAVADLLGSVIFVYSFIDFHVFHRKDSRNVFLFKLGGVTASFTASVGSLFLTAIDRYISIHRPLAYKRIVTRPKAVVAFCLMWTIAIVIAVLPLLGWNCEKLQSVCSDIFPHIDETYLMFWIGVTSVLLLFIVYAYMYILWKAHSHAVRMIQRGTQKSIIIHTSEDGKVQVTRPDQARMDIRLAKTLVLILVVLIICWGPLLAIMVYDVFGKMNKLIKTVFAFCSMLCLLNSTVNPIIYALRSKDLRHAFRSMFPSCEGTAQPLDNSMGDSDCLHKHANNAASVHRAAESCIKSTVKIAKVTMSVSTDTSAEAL
Description: as §4, §5, §6

[7] = test system: iNOS; test: Gene expression in LPS activated RAW 264.7 macrophages, iNOS; assay type: cell-based, mouse; settings: RAW 264.7, 10 μM, LPS 1 μg/ml, RNA 3 hrs after activation, vs vehicle treated activated cells
Description: as §1, §2, §3

[8] = test system: COX-2; test: Gene expression in LPS activated RAW 264.7 macrophages, COX-2; assay type: cell-based, mouse; settings: RAW 264.7, 10 μM, LPS 1 μg/ml, RNA 3 hrs after activation, vs vehicle treated activated cells
Description: as §1, §2, §3

[9] = test system: visceral pain writhing responses; test: Visceral pain, acetic acid induced writhing responses; assay type: in vivo, Male ICR mice; settings: Mus musculus, iv, single dose 2 mg/kg i.v., compared to untreated group; read-out: Percent Inhibition of Visceral Pain Writhing Responses
[10] = mechanical stimulus, read-out: Percent Inhibition of Inflammatory Pain Responses, ΔForce
[11] = thermal stimulus, read-out: Percent Inhibition of Inflammatory Pain Responses, ΔLT

Row | Structure (SMILES) | Percent inhibition of gene expression, IL-1β [2] | Percent inhibition of gene expression, MCP-1 [4] | inhibition in vivo at 10 mg/kg [5, 10] [%] | inhibition in vivo at 10 mg/kg [5, 11] [%] | Percent inhibition of gene expression, iNOS [7] | inhibition in vivo at 2 mg/kg [9] [%] | further results
1 | O=C(O)c1cc(/N=N/c2ccc(S(=O)(=O)Nc3ccccn3)cc2)ccc1O [sulfasalazine, reference compound] |  |  |  |  |  |  | regained normal weight on ([1]; 10 mg/kg): 6 days; transient loss in body weight ([1]; 10 mg/kg): 10%; mortality ([1]; 10 mg/kg): 0%
2 | CCCCC(C)(C)c1cc(OC(=O)C=CC(=O)O)c2c3c(oc2c1)CCCC3 [Compound C6M-8, But-2-enedioic acid mono-[3-(1,1-dimethylpentyl)-6,7,8,9-tetrahydro-dibenzofuran-1-yl]ester] | 51% | 85% | 20 | 45 | 66% |  | EC50 [3]: > 10000 nM; EC50 [6]: 0.25 nM; Emax ([6]; upper plateau of curve): -25%
3 | CCCCC(C)(C)c1cc(O)c2c(c1)OC1CC(C)(C)CCC21 (stereo not shown) [Compound C6S-6, 3-(1,1-dimethylpentyl)-7,7-dimethyl-5a,6,7,8,9,9a-hexahydro-dibenzofuran-1-ol] | 37% | NO (NO indicates that the compound tested did not significantly affect the transcription of the gene assessed and that its activity is comparable to vehicle, within ±20% from this control) |  |  | NO (NO indicates that the compound tested did not significantly affect the transcription of the gene assessed and that its activity is comparable to vehicle, within ±20% from this control) | 38 | Percent inhibition of gene expression, COX-2 [8]: NO (NO indicates that the compound tested did not significantly affect the transcription of the gene assessed and that its activity is comparable to vehicle, within ±20% from this control)
4 | CCCCC(C)(C)c1cc(OCC(=O)O)c2c(c1)OC1CCCCC21 (stereo not shown) [Compound C6S-9, [3-(1,1-Dimethylpentyl)-5a,6,7,8,9,9a-hexahydro-dibenzofuran-1-yloxy]-acetic acid] |  |  | 14 | 53 |  |  | transient loss in body weight ([1]; 20 mg/kg i.p. daily): behaved as the sulfasalazin treated group; mortality ([1]; 20 mg/kg i.p. daily): 0%
5 | CCCCCCC(C)(C)c1cc(O)c2c(c1)OC1CCCCC21 (stereo not shown) [Compound C6S-1, 3-(1,1-Dimethylheptyl)-5a,6,7,8,9,9a-hexahydro-dibenzofuran-1-ol] | NO (NO indicates that the compound tested did not significantly affect the transcription of the gene assessed and that its activity is comparable to vehicle, within ±20% from this control) | 66% |  |  | NO (NO indicates that the compound tested did not significantly affect the transcription of the gene assessed and that its activity is comparable to vehicle, within ±20% from this control) | 39 | inhibition in vivo at 20 mg/kg ([5]; 20 mg/kg i.p. (two asterisks), reduction in paw swelling, read-out: Percent Inhibition of Inflammatory Pain Responses, Edema): 48%
